Source: a melting point compilation (Tetko et al.; mined from patent text by program, amines drawn as free bases though some values may be those of a salt)

Row | SMILES | melting point [°C]
1 | O=C1CN(C(c2ccccc2)c2ccccc2)N1 | 160 to 163
2 | COC(=O)C1=C(O)c2ccccc2S(=O)(=O)N1C | 163 to 165
3 | NS(=O)(=O)c1ccc(NC(=O)NC23CC4CC(CC(C4)C2)C3)cc1 | 270 to 275
4 | Cc1c(-c2ccccc2)sc2nc(NCCNC(=O)CCN3CCN(C)CC3)[nH]c(=O)c12 | 235 to 245
5 | CC(C)n1nc(-c2sc(NC(=O)c3cccc(F)c3)nc2-c2ccccc2)ccc1=O | 183 to 184
6 | COc1cc(N)c(Cl)cc1C(=O)NC1CCN(CC2CCN(C(=O)C3CCOCC3)CC2)CC1 | 235 to 237
7 | Clc1ccc2c(c1)-c1nnnn1-c1ccccc1O2 | 209 to 211
8 | N#Cc1ccccc1C=C1c2ccccc2CCc2ccccc21 | 185
9 | OC1(Cn2cncn2)C(Cc2ccc(F)cc2)CCC12CC2 (stereo not given) | 89 to 90
10 | O=C(O)C(=O)c1ccc(OCCOC2CCCCC2)cc1 | 96 to 98
11 | CCOC(=O)c1c(C)nc2sc(C)nc2c1NCCCN(C)C | 53 to 54
12 | C=CCC1(CCNC(=O)C2CCC2)c2cc(OC)ccc2CCC12OCCO2 (stereo not given) | 99 to 101
13 | CC(=O)OCC1OC(n2cc(C3=C(c4c[nH]c5ccccc45)C(=O)N(C)C3=O)c3cccnc32)C(OC(C)=O)C(OC(C)=O)C1OC(C)=O (stereo not given) | 119 to 121
14 | O=Cc1nccn1Cc1ccccc1[N+](=O)[O-] | 141 to 144
15 | CO[C@@H]1CN(Cc2ccccc2)C[C@H]1NC(=O)OC(C)(C)C | 44 to 45
16 | CCCCn1c(=O)c(NC(=O)Nc2c(C(C)C)cc(NCc3cccnc3)cc2C(C)C)c(-c2cccc(OC)c2)c2cccnc21 | 160 to 161
17 | COC(=O)c1ccc(/C=C/c2nc(-c3ccco3)oc2C)cc1 | 142 to 143
18 | Clc1ccc(Oc2c(-c3ccco3)sc3cnccc23)cc1 | 75 to 77
19 | O=C(NCc1cccnc1)Nc1ccc(S)cc1 | 155 to 159
20 | CCOCCNc1nc(Cl)nc(Cl)n1 | 77

Row | SMILES | melting point [°C]
21 | Cc1cc(=O)n2c3c(cc(C(O)(C(F)(F)F)C(F)(F)F)cc13)CC2 | 337 to 338
22 | S=C(Cc1ccccc1N1CCOCC1)N1CCOCC1 | 140
23 | O=C(O)CCCCN1CCN2c3ccccc3Cc3ccccc3C2C1 (stereo not given) | 218 to 219
24 | Fc1ccc(CN2CCN(C3CC=C(c4ccc(C(F)(F)F)cc4)CC3)CC2)cc1 (stereo not given) | 108 to 109
25 | COc1ccc(CSc2ccncc2)c2c1OCC2C (stereo not given) | 110 to 112
26 | CCCCCCCCCCCCCCCCOC(=O)c1cnc(C(=O)OCCCCCCCCCCCCCCCC)c2ccccc12 | 80.7 to 81.4
27 | O=C(c1ccccc1)[C@@]1([N+](=O)[O-])[C@@H]2C=C[C@@H](C2)[C@H]1c1ccccc1 (relative stereo) | 119 to 120
28 | CC(C)(C)OC(=O)Nc1ccc(C#Cc2ccc(F)cc2)cc1NC(=O)CC(=O)c1cccc(-n2cncn2)c1 | 131 to 139
29 | CC(=O)NCN(C(=O)CCl)C(=C(C)C)C(C)C | 113 to 114
30 | CCOC(=O)NC(=O)N1CC1C#N (stereo not given) | 108 to 110
31 | Cc1ccc(S(=O)(=O)NCC(O)(Cn2cncn2)c2ccc(F)cc2F)cc1 (stereo not given) | 130 to 136
32 | Fc1ccc(C=Cc2nc(CNc3ccc(CCCCn4ccnn4)cc3)co2)c(C(F)(F)F)c1 | 109 to 111
33 | ON=Cc1c(-c2ccccc2Br)ccc2c1OCO2 | 168 to 169
34 | CCCCCCCCCCCCCCN(C(=O)CCCCCCCCCCC)C1(N)OC(CO)C(O)C(O)C1C(=O)C(N)C(=O)C(N)CO (stereo not given) | 141 to 143
35 | CC1=C(C2OC(=O)NC2=O)CCCC1 (stereo not given) | 104 to 106
36 | Cc1cc(C2=NN(c3nccs3)[C@H](C)Cc3cc4c(cc32)OCO4)ccc1[N+](=O)[O-] | 138 to 142
37 | N#CCC1OC(n2cnc3c(NN4CCCCC4)nc(Cl)nc32)C(O)C1O (stereo not given) | 192 to 193
38 | O=C(O)c1ccc(S(=O)(=O)n2cccc2)s1 | 191 to 194
39 | CON=C(C)CN(C(=O)c1ccco1)c1c(C)cccc1C | 108 to 109
40 | N#Cc1c(-c2cccs2)[nH]c(C(F)(F)F)c1Cl | 221 to 223

Row | SMILES | melting point [°C]
41 | c1ccc(CO[C@@H]2CCC[C@H]2Nc2nc(N3CCN(c4ccccc4)CC3)nc3c2SCC3)cc1 | 100 to 105
42 | COC(=O)c1nc(C)n2c1C(C)N=C(c1ccccc1)c1cc(Cl)ccc1-2 (stereo not given) | 217 to 221
43 | COc1ccc(-c2c(Cl)nc(Cl)nc2-c2ccccc2)cc1 | 132 to 134
44 | O=C(Nc1ccc(O)cc1)OCC(Cl)(Cl)Cl | 134
45 | O=C(NCC(F)(F)F)c1ccc(C(F)(F)F)cc1 | 117
46 | CCO[PH](=O)OP(=O)(CNC(C)(c1ccccc1)c1cc(C(C)(C)C)c(O)c(C(C)(C)C)c1)OCC (stereo not given) | 95 to 110
47 | O=C(O)c1ccccc1C(=O)c1ccc(N2CCOCC2)cc1O | 184 to 187
48 | O=C(O)c1cccc(N2CCC(N=Cc3ccccc3)=N2)c1 | 185
49 | NS(=O)(=O)c1ccc(-c2cnn(Cc3cc(F)c(F)cc3F)c(=O)c2-c2ccc(F)cc2)cc1 | 236 to 238
50 | N#CNc1ccc2c3c(cccc13)CC2 | 163 to 165
51 | CC(=O)[C@H]1CC[C@H](CNC(=O)OCc2ccccc2)CC1 | 66 to 67
52 | CCNc1cccnc1N1CCN(C(=O)c2ccc(C(=O)N(CC)CCO)cc2)CC1 | 106 to 108
53 | CN(C)C(=NS(=O)(=O)c1ccc(Cl)cc1)N1CC(c2ccccc2)C(c2ccc(Cl)cc2)=N1 (stereo not given) | 182
54 | CC1N=C(c2ccccc2)c2cc(Cl)ccc2NC1=S (stereo not given) | 250
55 | COc1cc2ncnc(N3CCN(C(=O)Nc4ccc(N5CCOCC5)cc4)CC3)c2cc1OC | 254 to 256
56 | N#CN=C(Nc1cccnc1)NC(NC(=O)c1ccccc1)C(Cl)(Cl)Cl (stereo not given) | 133 to 135
57 | CCCCCCCCCCCCc1nnn(CC(=O)O)n1 | 89 to 91
58 | CC(C)c1nc2c(c(-c3ccc(F)cc3)c1C(C)O)CCC2(C)C (stereo not given) | 90 to 92

The next lines start with the values.

Row | melting point [°C] | SMILES
59 | 70 to 71 | CCOC(=O)c1ccc(/C=C(\C)c2ccc3c(c2)C(C)(C)CC3(C)C)cc1
60 | 153 to 154 | COc1cc(C=CCN(C)CCc2ccc(N=C(N)c3cccs3)cc2)cc(OC)c1O
61 | 156 | CCN1Cc2cccc3scc(c23)S1(=O)=O
62 | 232 to 233 | CC(C)(C)c1cc(C=C2Sc3ccccc3N(CP(=O)(O)O)C2=O)cc(C(C)(C)C)c1O
63 | 167 to 168 | O=c1c2cccnc2c(-c2cccc([N+](=O)[O-])c2)nn1Cc1ccncc1
64 | 156 to 160 | Cc1cc(C)n(-c2cnc(CN)c(Nc3ccc(Cl)cc3)n2)n1
65 | 167 to 168 | CCOC(=O)Cn1c(=O)c2cc(OC)ccc2n(Cc2ccc(Cl)cc2Cl)c1=O
66 | 212 | CC(=O)Nc1nc(CCc2ccc(N)cc2)c(C(=O)O)s1
67 | 96 to 100 | CC[C@H](C)[C@H](NC(=O)[C@H](Cc1ccc(O)cc1)NC(=O)OC(C)(C)C)C(=O)NCCCBr
68 | 210 to 212 | O=C(NCc1ccc([N+](=O)[O-])cc1)c1ccc2cccnc2c1O
69 | 145 | CCc1ccc(C)c(S(=O)(=O)NC(=O)n2nc(C)n(C)c2=O)c1
70 | 173 to 175 | NC(=S)CCn1nc(-c2ccccc2)ccc1=O
71 | > 300 | O=C1N=C2C=CC=CN2C1(Cc1ccccc1)Cc1ccc(F)cc1 (stereo not given)
72 | 95 to 97 | CCOC(=O)C(=O)c1ccc(OCCCn2c(=O)c3ccccc3c3ccccc32)cc1
73 | 86.5 to 87.5 | CCCCC/C(=C\C=C\C(=O)O)c1ccc(OC)cc1
74 | 92 to 101 | COc1ccc(CSc2ccc(S(=O)(=O)N=CN(C)C)s2)cc1
75 | 173 to 175 | O=C(O)Cc1ccc(Cc2nc3c(F)c(F)cc(F)c3s2)cc1
76 | 218 to 219 | Cc1cc(C2=NNC(=O)C2)ccc1[N+](=O)[O-]
77 | 118 to 120 | Clc1cccc(-c2nc(Cl)cc(Cl)n2)c1
78 | 220 to 222 | COc1cc2c(cc1-c1ccccc1F)NC(=O)CC(c1cccc(-n3ccnc3C)c1)=N2
79 | 219 to 223 | CCCCc1nc2c(N)nc3ccc(O)cc3c2n1CCCCNS(=O)(=O)c1ccccc1

Row | melting point [°C] | SMILES
80 | 132 to 133 | CCOC(=O)Cc1c(-c2ccccc2)c2cc(C)c(Cl)cc2oc1=O
81 | 164 | CCOC(=O)C1=C(C)N2CCNC2=C(C(=O)OCC)C1c1ccco1 (stereo not given)
82 | 99 to 100 | CCC(=O)Cc1cc2cc(OCCNC[C@H](O)COc3ccccc3)ccc2o1
83 | 172 to 174 | COCCOc1ccc2c(c1)OCC21C(=O)Nc2ccccc21 (stereo not given)
84 | 143 | CCCOc1cc(Cn2[nH]c(N)cc2=O)ccc1Cl
85 | 256 to 258 | CCOC(=O)c1cc2c([nH]c3ccccc32)c(CNc2ccccc2)n1
86 | 156 to 160 | COc1cc(C)c(C(=O)c2c(Cl)cccc2Cl)cc1[N+](=O)[O-]
87 | 180 | O=C1CN(c2ccc(CC3NC(=O)c4ccccc4NC3=O)cc2O)S(=O)(=O)N1 (stereo not given)
88 | 63 to 65 | CC(C)(O)C#Cc1ccc(C#N)cc1Cl
89 | 283 to 284 | COc1cc2[nH]cc(-c3cc4c(Cl)c(F)cnc4[nH]3)c2nc1OC
90 | 88 to 89 | Cc1cccc(C(O)CNC(N)=C(CCSCc2cc(C)c(CN(C)C)s2)[N+](=O)[O-])c1 (stereo not given)
91 | 82 to 84 | CCOC(=O)c1csc(-c2ccccc2[N+](=O)[O-])n1
92 | 248 to 250 | CC(C)(N)Cn1c(CO)nc2c(N)nc3ccccc3c21
93 | 108 to 110 | CCCCCCc1cc(C=O)c(O)cc1O
94 | 120 to 123 | COC(=O)c1c(Cl)cc(Cl)cc1NC(=O)CSc1ccc(NS(=O)(=O)c2ccc(Cl)cc2)cc1
95 | 222 to 224 | Cc1c(Nc2ncc(Br)cc2C(=O)O)cccc1C(F)(F)F
96 | 209 to 211 | Cc1nc2c(N)nc3ccccc3c2n1CC(C)(C)CC1(C)OCCO1
97 | 104 to 107 | COC(=O)c1ccc(NCc2ccccc2)cn1
98 | 106 to 107 | CCOC(=O)c1cnoc1-c1ccc(F)c(Cl)c1
99 | 72 to 73 | CCOC(=O)c1ccc(N(C=O)Cc2ccc(Cl)cc2)cc1
100 | 64 to 67 | OCCOc1cccc2cnccc12
